This assay in a line: Inhibition of neuraminidase activity of human parainfluenza virus 1 C35 hemagglutinin-neuraminidase pre-incubated for 20 mins before MUN substrate by methylumbelliferone release based fluorescence assay.

Some results are limits rather than exact numbers.

By IC50 is commonly meant the midpoint of a concentration-inhibition curve. Higher therefore signals weaker potency. `CCC(C)C(=O)N[C@H]1[C@H]([C@H](O)[C@H](O)CO)OC(C(=O)O)=C[C@@H]1N=[N+]=[N-]` (stereo partly drawn): 1.58 µM corresponded to half-maximal inhibition (IC50). `CC(O)C(=O)N[C@H]1[C@H]([C@H](O)[C@H](O)CO)OC(C(=O)O)=C[C@@H]1N=[N+]=[N-]` (stereo partly drawn) yielded an IC50 of 68.1 µM. Next, `[N-]=[N+]=N[C@H]1C=C(C(=O)O)O[C@@H]([C@H](O)[C@H](O)CO)[C@@H]1NC(=O)C1CC1`: 0.91 µM; `CC(=O)N[C@H]1[C@H]([C@H](O)[C@H](O)CO)OC(C(=O)O)=C[C@@H]1N`: over 1000 µM. Next, `CC(C)C(=O)N[C@H]1[C@H]([C@H](O)[C@H](O)CO)OC(C(=O)O)=C[C@@H]1NC(=N)N`: over 1000 µM; `C/C=C(\C)C(=O)N[C@H]1[C@H]([C@H](O)[C@H](O)CO)OC(C(=O)O)=C[C@@H]1N=[N+]=[N-]`: 7.76 µM; `CC(=O)N[C@H]1[C@H]([C@H](O)[C@H](O)CO)OC(C(=O)O)=C[C@@H]1O`: 63.8 µM. The result for `CC(CO)C(=O)N[C@H]1[C@H]([C@H](O)[C@H](O)CO)OC(C(=O)O)=C[C@@H]1N=[N+]=[N-]` (stereo partly drawn) reads 9.49 µM; that for `CC(C)C(=O)N[C@H]1[C@H]([C@H](O)[C@H](O)CO)OC(C(=O)O)=C[C@@H]1N=[N+]=[N-]`, 0.5 µM; that for `CC(C)C(=O)N[C@H]1[C@H]([C@H](O)[C@H](O)CO)OC(C(=O)O)=C[C@@H]1O`, 3.82 µM. For `CC(=O)N[C@H]1[C@H]([C@H](O)[C@H](O)CO)OC(C(=O)O)=C[C@@H]1N=[N+]=[N-]`, the IC50 came to 3.92 µM. Turning to `[N-]=[N+]=N[C@H]1C=C(C(=O)O)O[C@@H]([C@H](O)[C@H](O)CO)[C@@H]1NC(=O)C1CCC1`, the IC50 was determined as 1.92 µM. Compared with the last compound, the IC50 is about 2-fold lower. In turn, `CC(C)C(=O)N[C@H]1[C@H]([C@H](O)[C@H](O)CO)OC(C(=O)O)=C[C@@H]1N` gave an IC50 of 261 µM. Against the preceding compound, the IC50 is about 140-fold higher.
